Measured values taken from PubChem BioAssay AID1919017 (Molecular Pharmacology Branch, DTP, NCI, 2023).
pIC50: −log10 of the molar value.

Test system: SW1271 complex spheroids with HUVEC/MSC, growth, % test/control
Experiment: Anticancer human tumor SW1271 cell line growth inhibition [AhR];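 also: spheroids exposed to agents for 7 days before readout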
Conditions: for pIC50: curve of first compound; for viability, T/C: stronger effect = lower value
Outline: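 Agents were dosed in half-log steps down from roughly clinical Cmax, or from 10 microM where Cmax was unknown, alone and with AhR antagonists. Read-out: percent test/control growth of tumor spheroids containing HUVEC and MSC stromal cells.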

[1] = second compound 0.1 µM, first compound 0.0316 µM
[2] = second compound 0.1 µM, first compound 0.1 µM
[3] = second compound 0.1 µM, first compound 0.316 µM
[4] = second compound 0.1 µM, first compound 1 µM
[5] = second compound 0.1 µM, first compound 3.16 µM
[6] = second compound 0.1 µM, first compound 10 µM
[7] = second compound 0.316 µM, first compound 0.0316 µM
[8] = second compound 0.316 µM, first compound 0.1 µM
[9] = second compound 0.316 µM, first compound 0.316 µM
[10] = second compound 0.316 µM, first compound 1 µM
[11] = second compound 0.316 µM, first compound 3.16 µM
[12] = second compound 0.316 µM, first compound 10 µM
[13] = second compound 1 µM, first compound 0.0316 µM
[14] = second compound 1 µM, first compound 0.1 µM
[15] = second compound 1 µM, first compound 0.316 µM
[16] = second compound 1 µM, first compound 1 µM
[17] = second compound 1 µM, first compound 3.16 µM
[18] = second compound 1 µM, first compound 10 µM
[19] = second compound 3.16 µM, first compound 0.0316 µM
[20] = second compound 3.16 µM, first compound 0.1 µM
[21] = second compound 3.16 µM, first compound 0.316 µM
[22] = second compound 3.16 µM, first compound 1 µM
[23] = second compound 3.16 µM, first compound 3.16 µM
[24] = second compound 3.16 µM, first compound 10 µM
[25] = second compound 10 µM, first compound 0.0316 µM
[26] = second compound 10 µM, first compound 0.1 µM
[27] = second compound 10 µM, first compound 0.316 µM
[28] = second compound 10 µM, first compound 1 µM
[29] = second compound 10 µM, first compound 3.16 µM
[30] = second compound 10 µM, first compound 10 µM

SMILES | pIC50 (second compound 0.1 µM) | pIC50 (second compound 0.316 µM) | pIC50 (second compound 1 µM) | pIC50 (second compound 3.16 µM) | pIC50 (second compound 10 µM) | viability, T/C [1] | viability, T/C [2] | viability, T/C [3] | viability, T/C [4] | viability, T/C [5] | viability, T/C [6] | viability, T/C [7] | viability, T/C [8] | viability, T/C [9] | viability, T/C [13] | viability, T/C [14] | viability, T/C [19] | viability, T/C [20] | viability, T/C [25] | viability, T/C [26] | further results
CC1(C)CCC(CN2CCN(c3ccc(C(=O)NS(=O)(=O)c4ccc(NCC5CCOCC5)c([N+](=O)[O-])c4)c(Oc4cnc5[nH]ccc5c4)c3)CC2)=C(c2ccc(Cl)cc2)C1 + CC(CO)NC(=O)c1cc(-c2ccc(Cl)cc2)nn(-c2cnn(C)c2)c1=O | < 5.00 | < 5.00 | < 5.00 | < 5.00 | < 5.00 | 85.8% | 90.7% | 107% | 98.6% | 82.7% | 71.5% | 84.4% | 73% | 71.8% | 91% | 89.3% | 68% | 70.2% | 70.8% | 69.3% | viability, T/C [10]: 84.2%; viability, T/C [11]: 100%; viability, T/C [12]: 78.3%; viability, T/C [15]: 78.8%; viability, T/C [16]: 80.4%; viability, T/C [17]: 85%; viability, T/C [18]: 86.3%; viability, T/C [21]: 91.4%; viability, T/C [22]: 82.5%; viability, T/C [23]: 60.7%; viability, T/C [24]: 88.6%; viability, T/C [27]: 74.7%; viability, T/C [28]: 54.8%; viability, T/C [29]: 78.2%; viability, T/C [30]: 78.2%
Cn1ncnc1C1c2n[nH]c(=O)c3cc(F)cc(c23)NC1c1ccc(F)cc1 (stereo not given) + CC(CO)NC(=O)c1cc(-c2ccc(Cl)cc2)nn(-c2cnn(C)c2)c1=O | < 7.00 | < 7.00 | < 7.00 | < 7.00 | < 7.00 | 84% | 107% |  |  |  |  | 85.2% | 79.2% |  | 74.1% | 103% | 84.5% | 77.2% | 75.9% | 76.1% | viability, T/C (second compound 0.1 µM, first compound 0.000316 µM): 111%; viability, T/C (second compound 0.1 µM, first compound 0.001 µM): 104%; viability, T/C (second compound 0.1 µM, first compound 0.00316 µM): 95.8%; viability, T/C (second compound 0.1 µM, first compound 0.01 µM): 98%; viability, T/C (second compound 0.316 µM, first compound 0.000316 µM): 84.1%; viability, T/C (second compound 0.316 µM, first compound 0.001 µM): 87.1%; viability, T/C (second compound 0.316 µM, first compound 0.00316 µM): 104%; viability, T/C (second compound 0.316 µM, first compound 0.01 µM): 89%; viability, T/C (second compound 1 µM, first compound 0.000316 µM): 96.2%; viability, T/C (second compound 1 µM, first compound 0.001 µM): 101%; viability, T/C (second compound 1 µM, first compound 0.00316 µM): 73.7%; viability, T/C (second compound 1 µM, first compound 0.01 µM): 81.2%; viability, T/C (second compound 3.16 µM, first compound 0.000316 µM): 79.7%; viability, T/C (second compound 3.16 µM, first compound 0.001 µM): 73%; viability, T/C (second compound 3.16 µM, first compound 0.00316 µM): 71.4%; viability, T/C (second compound 3.16 µM, first compound 0.01 µM): 89.1%; viability, T/C (second compound 10 µM, first compound 0.000316 µM): 71.8%; viability, T/C (second compound 10 µM, first compound 0.001 µM): 74.6%; viability, T/C (second compound 10 µM, first compound 0.00316 µM): 61.4%; viability, T/C (second compound 10 µM, first compound 0.01 µM): 89.4%
NS(=O)(=O)OCC1CC(n2ccc3c(NC4CCc5ccccc54)ncnc32)CC1O (stereo not given) + CC(CO)NC(=O)c1cc(-c2ccc(Cl)cc2)nn(-c2cnn(C)c2)c1=O | 5.47 | 5.54 | 5.50 | < 5.00 | < 5.00 | 112% | 133% | 96.5% | 65.9% | 44.6% | 51.8% | 127% | 115% | 92.5% | 125% | 127% | 133% | 129% | 86.2% | 104% | viability, T/C [10]: 58.5%; viability, T/C [11]: 47.3%; viability, T/C [12]: 49.7%; viability, T/C [15]: 118%; viability, T/C [16]: 69.2%; viability, T/C [17]: 48.2%; viability, T/C [18]: 50.6%; viability, T/C [21]: 108%; viability, T/C [22]: 69.2%; viability, T/C [23]: 54%; viability, T/C [24]: 59.3%; viability, T/C [27]: 103%; viability, T/C [28]: 76%; viability, T/C [29]: 62.6%; viability, T/C [30]: 63.6%
